Laboratory results reported in patent EP4800018A1, “PAN-KRAS INHIBITOR AND USE THEREOF IN MEDICINES” (Betta Pharmaceuticals Co., Ltd., priority 2023, dated 2025).
Like-named read-outs stand apart in the source and are kept apart here.

Legend:
Format in all cases: cell-based
KRAS G12D-cRAF = target: T1, KRAS G12D-cRAF (Homo sapiens, UniProt P01116, G12D); experiment: Cellular KRAS G12D-cRAF Binding Inhibition Assay (NanoBRET, AD293 stable cells); conditions: 3 h incubation
T1 construct: expressed in transfected cells
In short: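 IC50 values derive from fitted % inhibition, normalised to maximum signal and medium-only blank. The read-out is NanoBRET between KRAS G12D-NanoLuc (donor) and cRAF RBD-HaloTag labelled with the 618 ligand (acceptor), in live stably transfected AD293 cells at 1×10^4/well.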

KRAS G12V-cRAF = target: T2, KRAS G12V-cRAF (Homo sapiens, UniProt P01116, G12V); experiment: Cellular KRAS G12V-cRAF Binding Inhibition Assay (NanoBRET, AD293 stable cells); conditions: 3 h incubation
T2 construct: expressed in transfected cells
In short: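 Binding measured as BRET between NanoLuc and HaloTag-bound NanoBRET 618 ligand (added overnight) in stably expressing AD293 cells. Signals were converted to percent inhibition against max and blank wells and fitted for IC50.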

[1] = system: KRAS-G12V mutant tumor cells SW620; experiment: Cell Proliferation Inhibition Assay (SW620), Cell-titer GLO, 96 h; conditions: read-out: SW620(G12V)
In short: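 Readout: Cell-titer GLO luminescence after 96 h at 37°C, converted to percent inhibition against 0.5% DMSO and blank controls, with IC50 from curve fit. Low-attachment SW620 cultures (1×10^3 cells/well) were dosed at 10000–0.03 nM final.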

[2] = system: KRAS-G12D mutant tumor cells AGS; experiment: Cell Proliferation Inhibition Assay (AGS), Cell-titer GLO, 96 h; conditions: read-out: AGS(G12D)
In short: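 Inhibition % was derived from CellTiter-Glo luminescence (max minus measured, over max minus blank) and fitted to give IC50. Cells were KRAS-G12D AGS in low-attachment wells, treated for 96 h at 37°C.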

[3] = Homo sapiens, SW-620, 96 h, SW620 cells, 96 h incubation, Cell-titer GLO
[4] = Homo sapiens, AGS, 96 h, AGS cells, 96 h incubation, Cell-titer GLO
[5] = SW620 cells, 96 h incubation, Cell-titer GLO
[6] = AGS cells, 96 h incubation, Cell-titer GLO

T1 sequence (P01116 1-188 isoform P01116-2 G12D): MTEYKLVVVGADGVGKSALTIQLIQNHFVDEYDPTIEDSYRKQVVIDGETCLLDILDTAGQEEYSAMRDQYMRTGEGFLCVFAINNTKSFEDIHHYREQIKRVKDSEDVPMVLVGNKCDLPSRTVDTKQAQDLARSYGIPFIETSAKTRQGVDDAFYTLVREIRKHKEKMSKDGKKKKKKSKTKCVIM
T2 sequence (P01116 1-188 isoform P01116-2 G12V): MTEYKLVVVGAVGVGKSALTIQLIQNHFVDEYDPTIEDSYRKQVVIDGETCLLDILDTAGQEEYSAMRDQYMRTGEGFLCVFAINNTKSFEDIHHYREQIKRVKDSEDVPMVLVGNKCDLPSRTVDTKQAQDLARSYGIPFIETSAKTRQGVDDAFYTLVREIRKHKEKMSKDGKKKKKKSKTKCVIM

SMILES	IC50 (KRAS G12D-cRAF; read-out: NanoBRET KRAS G12D) [nM]	IC50 (KRAS G12V-cRAF; read-out: NanoBRET KRAS G12V) [nM]	IC50 [1, 3] [nM]	IC50 [2, 4] [nM]	IC50 [1, 5] [nM]	IC50 [2, 6] [nM]	IC50 (KRAS G12D-cRAF; NanoBRET KRAS G12D) [nM]	IC50 (KRAS G12V-cRAF; NanoBRET KRAS G12V) [nM]	IC50 ([1]; Homo sapiens, SW-620, 96 h) [nM]	IC50 ([2]; Homo sapiens, AGS, 96 h) [nM]
CC1OCCCn2c(c3c4cc(ccc42)-c2csc(n2)CC(NC(=O)C2CC2C(F)F)C(=O)N2CCCC(N2)C(=O)OCC(C)(C)C3)-c2cc(N3CCC(N4CCN(C)CC4)CC3)cnc21 [Example 102, (1S,2S)-2-(difluoromethyl)-N-((1^5S,6^3S,4S,Z)-1^5,10,10-trimethyl-1^2-(4-(4-methylpiperazin-1-yl)piperidin-1-yl)-5,7-dioxo-1^8,1^9,6^1,6^2,6^3,6^4,6^5,6^6-octahydro-1^5H,1^7H-8-oxa-1(13,15)-pyrido[3',2':7 ,8][1,5]oxazonino[5,6-a]indola-2(4,2)-thiazola-6(1,3)-pyridazinacycloundecaphane-4-yl)cyclopr opane-1-carboxamide]	4.13	14.7	0.17	0.38	–	–	–	–	–	–
CC1OCCCn2c(c3c4cc(ccc42)-c2csc(n2)CC(NC(=O)C24CC(C)(C2)C4)C(=O)N2CCCC(N2)C(=O)OCC(C)(C)C3)-c2cc(N3CCN(C)CC3)cnc21 [Example 80, 3-methyl-N-((1^53 ^3S,4S,Z)-1^5,10,10-trimethyl-1^2-(4-methylpiperazin-1-yl)-5,7-dioxo-1^8,1^9,6^1,6^2 ,6^3,6^4,6^5,^6-octahydro-1^5H,1^7H-8-oxa-1(13,15)-pyrido[3',2':7,8][1,5]oxazonino[5,6-a]indola-2(4, 2)-thiazola-6(1,3)-pyridazinacycloundecaphane-4-yl)bicyclo[1.1.1]pentane-1-carboxamide]	5.7	21.3	0.3	1.76	–	–	–	–	–	–
CC1OCCCn2c(c3c4cc(ccc42)-c2csc(n2)CC(NC(=O)C2CC2C(F)F)C(=O)N2CCCC(N2)C(=O)OCC(C)(C)C3)-c2cc(N3CCC4(CCN(C)CC4)CC3)cnc21 [Example 103, (1S,2S)-2-(difluoromethyl)-N-((1^5S,6^3S,4S,Z)-1^5,10,10-trimethyl-1^2-(9-methyl-3,9-diazaspiro[5. 5]undecan-3-yl)-5,7-dioxo-1^8,1^9,6^1,6^2,6^3,6^4,6^5,6^6-octahydro-1^5H,1^7H-8-oxa-1(13,15)-pyrido[3',2': 7,8][1,5]oxazonino[5,6-a]indola-2(4,2)-thiazola-6(1,3)-pyridazinacycloundecaphane-4-yl)cyclop ropane-1-carboxamide]	7.74	22.2	0.21	0.85	–	–	–	–	–	–
COC1CCN(c2cnc3c(c2)-c2c4c5cc(ccc5n2CCCOC3C)-c2csc(n2)CC(NC(=O)C2CC2C(F)F)C(=O)N2CCCC(N2)C(=O)OCC(C)(C)C4)C1 [Example 136, (1S,2S)-2-(difluoromethyl)-N-((1^5S,6^3S,4S,Z)-1^2-((S)-3-methoxypyrrolidin-1-yl)-1^5,10,10-trimethyl-5,7-dioxo-1^8,1^9,6^1,6^2,6^3,6^4,6^5,6^6-octahydro-1^5H,1^7H-8-oxa-1(13,15)-pyrido[3',2':7,8][1,5]oxazonino[5,6-alindola-2(4,2)-thiazola-6(1,3)-pyridazinacycloundecaphane-4-yl)cyclopropane-1-carboxamide]	4.59	19.6	–	–	1.5	5.6	–	–	–	–
C[C@@H]1OCC[C@H](C)n2c(c3c4cc(ccc42)-c2csc(n2)C[C@H](NC(=O)[C@H]2C[C@@H]2C)C(=O)N2CCC[C@H](N2)C(=O)OCC(C)(C)C3)-c2cc(N3CCN(C)CC3)cnc21 [Example 5, (1S,2S)-2-methyl-N-((1^5S,1^9S,6^3S,4S,Z)-1^5,1^9,10,10-tetramethyl-1^2-(4-methylpiperazin-1-yl)-5,7-dioxo-1^8,1^9,6^1,6^2,6^3,6^4,6^5,6^6-octahydro-1^5H,1^7H-8-oxa-1(13,15)-pyrido[3',2':7,8][1,5]oxazonino[5,6-a]indola-2(4,2)-thiazola-6(1,3)-pyridazinacycloundecaphane-4-yl)cyclopropane-1-carboxamide]	–	–	–	–	–	–	25.9	78.8	1.08	6.92
CC1OCCCn2c(c3c4cc(ccc42)-c2csc(n2)CC(NC(=O)C2CC2C(F)F)C(=O)N2CCCC(N2)C(=O)OCC(C)(C)C3)-c2cc(N3CC[S+]([O-])CC3)cnc21 [Example 134, (1S,2S)-2-(difluoromethyl)-N-(((1^5S,6^3S,4S,Z)-1^5,10,10-trimethyl-1^2-(1-oxidothiomorpholino)-5,7-dioxo-1^8,1^9,6^1,6^2,6^3,6^4,6^5,6^6-octahydro-1^5H,1^7H-8-oxa-1(13,15)-pyrido[3',2':7,8][1,5]oxazonino[5,6-alindola-2(4,2)-thiazola-6(1,3)-pyridazinacycloundecaphane-4-yl)cyclopropane-1-carboxamide]	13.7	59	1.44	1.7	–	–	–	–	–	–

Further lines, with some results ahead:

IC50 (KRAS G12D-cRAF; read-out: NanoBRET KRAS G12D) [nM]	IC50 (KRAS G12V-cRAF; read-out: NanoBRET KRAS G12V) [nM]	IC50 [1, 3] [nM]	IC50 [2, 4] [nM]	IC50 [1, 5] [nM]	IC50 [2, 6] [nM]	SMILES	IC50 (KRAS G12D-cRAF; NanoBRET KRAS G12D) [nM]	IC50 (KRAS G12V-cRAF; NanoBRET KRAS G12V) [nM]	IC50 ([1]; Homo sapiens, SW-620, 96 h) [nM]	IC50 ([2]; Homo sapiens, AGS, 96 h) [nM]
2.7	17.6	0.6	2	–	–	CC1OCCCn2c(c3c4cc(ccc42)-c2csc(n2)CC(NC(=O)C2CC2C)C(=O)N2NC(C(=O)OCC(C)(C)C3)C3CC2C3)-c2cc(N3CCN(C)CC3)cnc21 [Example 183, (1S,2S)-2-methyl-N-((1^5S,6^4S,4S,Z)-1^5,10,10-trimethyl-1^2-(4-methylpiperazin-1-yl)-5,7-dioxo-1 ^8,1^9-dihydro-1^5H,1^7H-8-oxa-6^2,6^3-diaza-1(13,15)-pyrido[3',2':7,8][1,5]oxazonino[5,6-a]indola-2(4,2)-thiazola-6(2,4)-bicyclo[3.1.1]heptanacycloundecaphane-4-yl)cyclopropane-1-carboxamide]	–	–	–	–
2.88	11.9	0.33	2.04	–	–	CC1OCCCn2c(c3c4cc(ccc42)-c2csc(n2)CC(NC(=O)C2CC2C(F)F)C(=O)N2CCCC(N2)C(=O)OCC(C)(C)C3)-c2cc(N3CCOCC3)cnc21 [Example 83, (1S,2S)-2-(difluoromethyl)-N-((1^5S,6^3S,4S,Z)-1^5,10,10-trimethyl-1^2-morpholino-5,7-dioxo-1^8,1^9, 6^1,6^2,6^3,6^4,6^56-octahydro-1^5H,1^7H-8-oxa-1(13,15)-pyrido[3',2':7,8][1,5]oxazonino[5,6-a]indola-2(4,2)-thiazola-6(1,3)-pyridazinacycloundecaphane-4-yl)cyclopropane-1-carboxamide]	–	–	–	–
1.88	5.61	–	–	0.09	0.3	CC1OCCCn2c(c3c4cc(ccc42)-c2csc(n2)CC(NC(=O)C2CC2C(F)F)C(=O)N2CCCC(N2)C(=O)OCC(C)(C)C3)-c2cc(N3CC(C)N(C)C(C)C3)cnc21 [Example 142, (1S,2S)-2-(difluoromethyl)-N-((1^5S,6^3S,4S,Z)-1^5,10,10-trimethyl-5,7-dioxo-1^2-((3S,5S)-3,4,5-trimethylpiperazin-1-yl)-1^8,1^9,6^1,6^2,6^3,6^4,6^5,6^6-octahydro-1^5H,1^7H-8-oxa-1(13,15)-pyrido[3',2':7,8] [1,5]oxazonino[5,6-a]indola-2(4,2)-thiazola-6(1,3)-pyridazinacycloundecaphane-4-yl)cyclopropane-1-carboxamide]	–	–	–	–
1.8	9.3	0.14	0.38	–	–	CC1OCCCn2c(c3c4cc(ccc42)-c2csc(n2)CC(NC(=O)C2CC2C(F)F)C(=O)N2CCCC(N2)C(=O)OCC(C)(C)C3)-c2cc(N3CC(C)N(C)C(C)C3)cnc21 [Example 140, (1S,2S)-2-(difluoromethyl)-N-((1^5S,6^3S,4S,Z)-1^5,10,10-trimethyl-5,7-dioxo-1^2-((3S,5R)-3,4,5-trimethylpiperazin-1-yl)-1^8,1^9,6^1,6^2,6^3,6^4,6^5,6^6-octahydro-1^5H,1^7H-8-oxa-1(13,15)-pyrido[3',2':7,8] [1,5]oxazonino[5,6-a]indola-2(4,2)-thiazola-6(1,3)-pyridazinacycloundecaphane-4-yl)cyclopropane-1-carboxamide]	–	–	–	–
0.24	3.04	–	–	0.04	0.11	CC1OCCCn2c(c3c4cc(ccc42)-c2csc(n2)CC(NC(=O)C2C(C)C2C)C(=O)N2CCCC(N2)C(=O)OCC(C)(C)C3)-c2cc(N3CC(C)N(C)C(C)C3)cnc21 [Example 171, (1r,2R,3S)-2,3-dimethyl-N-((1^5S,6^3S,4S,Z)-15,10,10-trimethyl-5,7-dioxo-1^2-((3S,5S)-3,4,5-trimethylpiperazin-1-yl)-1^8,1^9,6^1,6^2,6^3,6^4,6^5,6^6-octahydro-1^5H,1^7H-8-oxa-1(13,15)-pyrido[3',2':7,8][1, 5]oxazonino[5,6-a]indola-2(4,2)-thiazola-6(1,3)-pyridazinacycloundecaphane-4-yl)cyclopropane-1-carboxamide]	–	–	–	–
